The test system of data set [1] is HCT15. Briefly: cells. The conditions noted are these: Homo sapiens, HCT-15, read-out: GI50 of etoposide (±Compound 1).
Experimental: Cell growth and treatment were performed in 96-well microtitre plates CELLSTAR® (Greiner Bio-One, Germany). Cells harvested from exponential phase cultures by trypsinization or by splitting (in the case of cells growing in suspension) were plated in 90 μl of media at optimal seeding densities. The optimal seeding density for each cell line was determined to ensure exponential growth for the duration of the experiment. All cells growing without anticancer agents were sub-confluent by the end of the treatment, as determined by visual inspection.
90 μl of cells, after a 48-hour pre-growth period, were treated by mixing with 10 μl of the compound-containing media (resulting in a final DMSO concentration of 0.1%). The cells were allowed to grow at 37° C. for 72 (or 120) hours.
Cells were fixed to the surface by addition of 10% TCA (for adherent growing cells) or 50% TCA (for semi-adherent growing cell or cells growing in suspension). After an hour of incubation at 4° C. plates were washed twice with 200 μl of deionized water and dried. Cells were then stained with 100 μl of 0.04% w/v SRB. […]
Using these measurements, cellular responses can be calculated for incomplete inhibition of cell growth (GI), complete inhibition of cell growth (TGI) and net loss of cells (LC) due to compound activity. […] TGI was calculated from Ti=Tz. […] It was calculated as 100×[(Ti−Tz)/Tz]=−50.
For data set [2], the system named is JEG3. Briefly: Single agent activity, panel of 81 cancer cell lines plus PBMC. The conditions noted are these: Homo sapiens, JEG-3, lower end of range. The class given is cell-based.
Data set [3] concerns MO59K (DNA-PK wild type). Briefly: AlamarBlue viability assay. The class given is cell-based, human. (Alamar Blue is a resazurin reagent that responds to reducing activity.)
Experimental: Details of the assay protocol and material utilized are set forth below.
After 24 h incubation at 37° C.
At the end of the compound incubation period 20 μl AlamarBlue reagent was added per well and the 96-well plates were incubated further up to seven hours. Absorption was determined at 540 nm by using Tecan Reader Connect and Magelan 7.
0% effect=cells treated with DMSO; −100% effect=no cells
The subject of data set [4] is FaDu xenograft. The format is in vivo. The text has this:
The standard radiotherapy regimen used in the clinic is a 6-week fractionated treatment schedule (5 fractions of 2 Gy IR per week—60 Gy total).

In data set [5] the test system is FaDu (H&N, squamous) xenograft. The format is in vivo. From the text:
The models were chosen from different cancer indications (colon, lung, head and neck, pancreatic), and histological subtypes (adeno, squamous, large cell). […]
The resulting Kaplan-Meier plots were compared by the log-rank test.

For data set [6], the target named is DNA-PK (Homo sapiens, UniProt P78527). Briefly: crystallographic and enzyme kinetics studies. The class given is biochemical.
Data set [7] addresses T1, DNA-PK (p-Ser2056) (Homo sapiens, UniProt P78527).
T1 construct: from tissue; host or cells: human tumor xenografts (FaDu, HCT116, WM164) grown in mice
As to the kind of experiment: IR-induced DNA-PK phosphorylation in tumor tissue, ELISA, HCT116 xenograft. The format is in vivo. The conditions noted are these: IR 50 Gy. From the text:
Following the induction of DSB by radiation therapy or other DNA damaging agents, the catalytic subunit of DNA-PK (DNA-PKc) is autophosphorylated at several serine and threonine residues. Ser2056 is one of the most prominent and best studied autophosphorylation sites. Because Ser2056 phosphorylation (p-Ser2056) correlated well with DNA-PK activation state it was chosen as the pharmacodynamics (PD) biomarker. Two different assay formats were established to measure p-Ser2056 in tumor tissue: ELISA and MSD format. In order to detect sequence reliable signal, IR was used at 50 Gy for the ELISA assay and 10 Gy for the more sensitive MSD assay.

The test system of data set [8] is human NCI-H526 SCLC xenograft. Briefly: NCI-H526 SCLC xenograft, combination with etoposide/cisplatin. The format is in vivo. Here is the method: The mice were acclimatized to the housing conditions for 1 week. […] Bedding consisted of aspen chips (E. Becker, Castrop-Rauxel). Room temperature was 24+/−2° C. and relative humidity was 50+/−10% at 15 air changes per hour. Drinking water (provided ad libitum) was supplemented with 1 mg/mL Chlorine and was adjusted to a pH of 6.5 with HCl. Sterile high protein maintenance diet for immunodeficient mice (Ssniff, Soest, product No V1244-72, γ-sterilized) was also provided ad libitum. The light cycle was set at 12 hrs light and 12 hrs darkness. Details of the study protocol are as follows:
Then the cell suspension (100 μL/animal) was subcutaneously inoculated in the right flank of immunodeficient CD1 mice.
Tumor measurements and calculations: When the tumors reached a volume of 96-214 mm^3 the animals were randomized into 7 treatment groups with 10 animals each. Tumor length (L) and width (W) were measured twice weekly by calipers. The tumor volume was calculated using the formula L×W2/2. Data were collected in Study Advantage™ (data collection system).
Treatment: dosing and scheduling per above.
T/C-value: The ability of a treatment to inhibit tumor growth was assessed at the end of each study by calculating the % T/C value according to following formulas: % T/C delta>0 calculation (mean): [(end tumor volume treatment−start tumor volume treatment)/(end tumor volume control−start tumor volume control)]×100] % T/C delta≤0 (regression) calculation (mean): [(end tumor volume treatment−start tumor volume treatment)/start tumor volume treatment]×100
Toxicity: The bodyweight change in % denotes the difference between the weight at start of treatment and the end of treatment. Changes of bodyweight during the treatment course are particularly important as it is considered a measure for presence or absence of treatment-related toxicity. A dosage producing a 20% body weight change (mean of group) or ≥10% drug deaths was considered an excessively toxic dosage. Animal body weights included the tumor weights.
Animals were treated with three 1-week cycles of chemotherapy consisting of Cisplatin (3 mg/kg once weekly) and Etoposide (4 mg/kg for three consecutive days per week).

Each structure is given as a SMILES string. “And” between values parts separate entries of the source, which are not always exact repeats. Equal values may be shown once. Read-outs that look alike come from different tables or passages of the source. Bounds are passed on as bounds.

With `COc1cc([C@@H]2c3cc4c(cc3[C@@H](O[C@@H]3O[C@@H]5CO[C@@H](C)O[C@H]5[C@H](O)[C@H]3O)[C@H]3COC(=O)[C@H]23)OCO4)cc(OC)c1O` [Etoposide], the GI50 in data set [1] is 1470 nM; in data set [2], 30 nM.
Consider `COc1ccc([C@@H](O)c2cc(-c3ncnc4cc(N5CCOCC5)ccc34)c(F)cc2Cl)nn1` [Compound 1, (S)-[2-chloro-4-fluoro-5-(7-morpholin-4-yl-quinazolin-4-yl)-phenyl]-(6-methoxy-pyridazin-3-yl)-methanol], for which the “inhibition of viability, combination with etoposide” value in data set [3] was “enhanced inhibition of viability”. For the same molecule, in data set [3] (compound incubation for 72 h), the “potentiation of etoposide, Compound 1 in comparison to VX-984” value was “compares favorably”. The “complete tumor regression, % of the animals” value in data set [4] (6 weeks IR (60 Gy total) + 10 mg/kg po, no regrowth during study period (113 days)) turned out to be 44%. Also, in data set [4] (6 weeks IR (60 Gy total) + 25 and 50 mg/kg po), the tumor regression entry was “regressed in all 10 animals”. Moreover, in data set [4] (6 weeks IR (60 Gy total) + Compound 1 po), the “tumor growth in comparison to IR alone” value was “strong inhibition of tumor growth”. In addition, the tolerability entry in data set [4] (6 weeks IR + Compound 1) is “generally well tolerated”; in data set [5] (total IR 30 Gy, 100 mg/kg po) it was “not tolerated”. For the same molecule, the “Enhancement Ratio [combi/IR only]” value in data set [5] (IR 10 Gy (5 x 2 Gy) + Compound 1 150 mg/kg po) is 2.1; in data set [5] (total IR 10 Gy, 25 mg/kg po), 1.4; in data set [5] (total IR 10 Gy, 100 mg/kg po), 1.9; in data set [5] (total IR 20 Gy, 5 mg/kg po), 0.9; in data set [5] (total IR 20 Gy, 10 mg/kg po), 1.13; in data set [5] (total IR 30 Gy (6 Gy daily), 10 mg/kg po, 10 mg/kg), 2 and 1.9. The “Enhancement Ratio [combi/IR only]” value in data set [5] (total IR 30 Gy, 5 mg/kg po) worked out at 1.4. For the same molecule, the “median time to TV400% Combi” value in data set [5] (IR 10 Gy (5 x 2 Gy) + Compound 1 150 mg/kg po 10 min prior to each fraction) is reported as 46 days; in data set [5] (total IR 10 Gy, 25 mg/kg po) it was 29.5 days; in data set [5] (total IR 10 Gy, 100 mg/kg po), 40 days; in data set [5] (total IR 10 Gy, 300 mg/kg po) it was greater than 63 days; in data set [5] (total IR 20 Gy, 5 mg/kg po), 43 days; in data set [5] (total IR 20 Gy, 10 mg/kg po) it was 56.5 days. The “median time to TV400% Combi” value in data set [5] (total IR 20 Gy, 100 mg/kg po) is greater than 94 days; in data set [5] (total IR 30 Gy, 5 mg/kg po), 69 days; in data set [5] (total IR 30 Gy, 10 mg/kg po), 94 days. The tumor response result in data set [5] (daily 4 Gy (20 Gy total), 100 mg/kg, 92 day observation period) is reported as “complete response”. Also, the “CR (complete response)” value in data set [5] (total IR 10 Gy, 300 mg/kg po, d 63) stood at 60% CR; in data set [5] (total IR 20 Gy, 100 mg/kg po, d 94), 100% CR. Moreover, the “inhibition of DNA-PK, mode” value in data set [6] was “potent and selective ATP-competitive inhibitor”. Also, the “inhibition of IR-induced DNA-PK phosphorylation (Ser2056)” value in data set [7] is “Dose-dependent inhibition”. Also, in data set [8] (Compound 1 daily throughout the study vs separated from SoC by 7 h or days), the efficacy by schedule result is listed as “better efficacy”. Also, the body weight change result in data set [8] (SoC combined with Compound 1) is “additional body weight loss”. Also, the mean tumor volume in data set [8] (day 21, Compound 1 50 mg/kg daily + etoposide 4 mg/kg + cisplatin 3 mg/kg, n=10) worked out at 50 mm^3. Moreover, the “decrease of mean tumor volume compared to starting volume” value in data set [8] (day 21, Compound 1 50 mg/kg daily + etoposide + cisplatin) is “about 67%”. Besides, the “animals showing complete response” value in data set [8] (day 28, combination arm) is 4/10. In addition, the animals with regression in data set [8] (day 28, combination arm) was 1/10. Besides, in data set [8] (day 28, combination arm), the “animals with stable disease” value is on record as 3/10. Also, the animals progression free in data set [8] (day 28, combination arm (Compound 1 + SoC)) is reported as 9/10. The antitumor activity result in data set [8] (in combination with Etoposide and Cisplatin) is recorded as “significantly enhanced antitumor activity”.

For orientation: GI50 means the concentration that inhibits growth by half.

(Values after patent publication US11246929B2, “Combination of a protein kinase inhibitor and an additional chemotherapeutic agent” (Merck Patent GmbH, priority 2016, dated 2022).)
